Measurements published in patent US20200247855A1, “THERAPY AND DIAGNOSTICS” (OXFORD UNIVERSITY INNOVATION LIMITED, priority 2017, published 2020).
No end group written: not given here.

How the values were obtained:
CCL18 = target: T1, CCL18 (Homo sapiens, UniProt P55774); assay: Fluorescence polarisation (anisotropy) assay; type: binding; conditions: fluorescence polarisation displacement assay
T1 construct: purchased Peprotech
T1 sequence (P55774 21-89): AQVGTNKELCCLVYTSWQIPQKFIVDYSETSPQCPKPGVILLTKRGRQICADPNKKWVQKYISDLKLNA
Protocol: (§1) FIG. 14(B). Fluorescence polarisation assay showing binding of chemokines to P672_PEP-FITC. The measured fluorescence anisotropy (y-axis) of P672_PEP-FITC (50 nM) following binding to a fixed dose (1 μM)) of CCL7, CCL8, CCL18 and CXCL1 (negative control). […] Statistical significance was determined using one-way ANOVA with Sidak's correction for multiple comparisons using Graph Pad Prism 6. **=p<0.005, ****=P<0.00005, ns=not significant.
(§2) FIG. 15(C). Displacement of P672_PEP-FITC from CCL18 by P672_PEP. In each case 100 μM (++) or […] (+) of P672_PEP was incubated with P672_PEP-FITC (50 nM)/chemokine (1 μM CCL7 and CCL18; 500 nM CCL8) and the resulting anisotropy measured. A peptide with the P672_PEP sequence scrambled ([…]) served as a negative control (P672_PEP_SCRAM; […]). Experiment carried out in triplicate where each data point is the average of one experiment carried out in technical triplicate. Mean with SEM shown and statistical significance was determined using one-way ANOVA with Sidak's correction for multiple comparisons using Graph Pad Prism 6. *=p<0.05, ***=p<0.0005, ****=P<0.00005, ns=not significant.
(§3) Fluorescence polarization assays were performed using a Clariostar (BMG Tech) plate reader with the supplied FITC excitation and emission filters using 96 half area well plates (Corning). The buffer used (FP assay buffer) was 50 mM HEPES, 150 mM NaCl, 0.1% BSA, 0.002% TWEEN-20, 0.2% DMSO, pH 7.4 and the final volume in each well was 30 μL. Polarization was converted to anisotropy using the equation A=(2*P)/(3−P) where P is polarization and A is anisotropy. For each peptide tested the gain was set to 35 mP and adjusted to a well containing fluorescent peptide only. The polarization of the emitted light in the FITC emission channel was then determined. Experiments were performed as two technical and three biological replicates. Screening of P672 peptide fragments was achieved through incubation of each peptide (50 nM) with 1 μM CCL8 (Peprotech) for 30 minutes in FP assay buffer and the resulting anisotropy of the emitted light determined as above. The chemokine cross binding screen was performed by incubating 1 μM chemokine (Peprotech) with 50 nM BK1.1FITC for half an hour in FP assay buffer and the resulting anisotropy of the emitted light determined as above. To monitor BK1.1FITC Ala mutants of binding to CCL8, 50 nM labelled peptide was incubated with varying concentrations of recombinant CCL8 (0-25 μM, final) in 30 μL FP assay buffer for 30 minutes and the resulting anisotropy of the emitted light determined as above. The anisotropy was plotted as a function of CCL8 concentration and fitted to the equation: Y=Bmax*X/(KD+X)+NS*X+Background, where Y is the measured anisotropy, X is the concentration of CCL8 added, Bmax is the maximum binding, KD is the equilibrium dissociation constant, NS is the slope of the nonlinear regression and Background is the anisotropy when no CCL8 is present, in Graph Pad Prism. Displacement assays were carried out with CCL7, CCL8, and CCL18 (Peprotech, 1 μM). […] For all FP assays, the experiments were carried out as two technical and three biological replicates.

CCL7 = target: T2, CCL7 (Homo sapiens, UniProt P80098); assay: Fluorescence polarisation (anisotropy) assay; type: binding; conditions: fluorescence polarisation displacement assay
T2 construct: purchased Peprotech
Protocol: as §1, §2, §3

CCL8 homodimer = target: T3, CCL8 homodimer (Homo sapiens, UniProt P80075); assay: Native mass spectrometry of CCL8 with peptide; conditions: 1:1 CCL8 monomer:BK1.1
T3 construct: purchased Peprotech (UK)
T3 sequence (P80075 24-99): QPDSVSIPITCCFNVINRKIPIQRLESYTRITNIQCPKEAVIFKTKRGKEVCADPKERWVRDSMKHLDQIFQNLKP
Protocol: Mid panel: In-solution dissociation of CCL8 dimer and further binding of CCL8 to one and two BK-1. Confirmation of CCL8/BK-1 complex by HCD gas-phase dissociation of isolated precursor ions: Bottom panel, left: 2217 m/z corresponding to CCL8/BK-1 (1:1) and Bottom panel, […]: 2555 m/z corresponding to CCL8/BK-1 (1:2). Buffers contained up to 0.5% DMSO. All analyses were performed in triplicate.
Samples were analysed using a modified Q-Exactive mass spectrometer (Thermo Fisher Scientific) for high-mass range measurements (Gault, J. et al., Nature methods [2016]). CCL8 was buffered exchanged into 200 mM ammonium acetate solution (pH=6.5). […] In all cases no more than 0.5% DMSO was present in the final mixture, and a control sample of CCL8 homodimer containing 0.5% DMSO was also analysed. Instrumental parameters were set to: capillary voltage of 1.2 KV, source temperature of 50° C. and 60 V of source induced dissociation (SID). Gas phase dissociation was carried out by applying 35 and 55 V of higher-energy collisional dissociation (HCD) to the most intense charge state after isolation (25 m/z window). Spectra was acquired using a mass resolution of 60,000 for both precursor and dissociated product ions. All measurements were done in triplicates.

T2 sequence (P80098 24-99): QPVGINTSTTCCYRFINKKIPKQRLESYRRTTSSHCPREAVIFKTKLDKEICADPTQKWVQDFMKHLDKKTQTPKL

EDEDYEDFFKPVTAYF-NH2 [BK1.1]
Displacement of FITC-labelled peptide from CCL18 by unlabelled peptide (CCL18): indicate its binding | Displacement of FITC-labelled peptide from CCL18 by unlabelled peptide (CCL18; listed as P672_PEP): able to displace labelled peptide bound to chemokine | Displacement of FITC-labelled peptide from CCL7 by unlabelled peptide (CCL7): indicate its binding | Displacement of FITC-labelled peptide from CCL7 by unlabelled peptide (CCL7; listed as P672_PEP): able to displace labelled peptide bound to chemokine | Effect on CCL8 homodimerization (CCL8 homodimer): disrupt CCL8 homodimerization
